{
  "source": "patent US20100184867A1",
  "about": "“USE OF ACTIVE AGENTS FOR STIMULATING THE EXPRESSION OF FN3K AND/OR FN3K RP FOR COMBATING AGEING OF THE SKIN” (CHANEL PARFUMS BEAUTE, priority 2007, published 2010)",
  "system": "glycation of the extra-cellular matrix (ECM)",
  "assay": "Glycation of the extra-cellular matrix (ECM) of fibroblasts: EFA content by dot blot and densitometric analysis",
  "assay_type": "cell-based, human",
  "details": "1 mg/ml",
  "protocol": "Human normal fibroblasts were cultured at 37° C. in the presence of DMEM (Invitrogen) containing 10% of fetal bovine serum (Invitrogen) and 50 UI/ml of penicillin, 50 μg/ml of […] (Invitrogen) and 2 mM of glutamin. Collagen synthesis was stimulated by culturing cells in the presence of vitamin C at 20 μg/ml (Sigma) for 5 days. The cells were then washed with PBS and lysed by successive cycles of freezing and thawing.\nExcept for the controls, cell layers had previously been treated with Butea frondosa (at 0.02; 0.1 and 0.5%), which was prepared according to Example 1 or with a reference compound: aminoguanidin at 1 mg/ml (Sigma). The cells were then incubated in the presence of 0.1 mg/ml glucose. Each of the treatments was performed, in triplicate, for 15 days at 37° C. with 5% CO2.\nAt the end of the incubation period, ECM proteins (essentially collagen) were extracted, and the samples were then transferred onto a nitrocellulose membrane (Hybrond, ECL, Amersham) by means of a Milliblot dotblot (Millipore). All the controls were carried out in order to assess the specificity of the final response. No interference was observed. […]\nThe following table illustrates the effect of this treatment on glucose incorporation into macromolecules synthetised by fibroblasts. The presence of EFA was measured by dot blot analysis and densitometric analysis.",
  "data": [
    {"smiles": "N=C(N)NN", "note": "[Aminoguanidin, aminoguanidin]", "values": [
      {"measurement": "Inhibition of EFA content compared to the control", "result": 35, "unit": "%"},
      {"measurement": "EFA content relative to control", "setting": "15 days, 0.1 mg/ml glucose, control 100%", "result": 65, "unit": "%"}
    ]}
  ]
}
